Assay results taken from patent US6680300B2 (Board of Regents, The University of Texas System, priority 1998, dated 2004).
In brackets after ≈: the same amount, converted by molar mass. Several values for one entry are separate records, joined by “and”; a condition that tells them apart may be missing. Equal values may be shown once.

How the values were obtained:
[1] = test system: MRP-resistant MCF-7/VP-16 cells; assay: MTT cytotoxicity assay, MRP-resistant MCF-7/VP-16 cells; assay type: cell-based, human
Description: (§1) Compounds synthesized using the methods described above were tested using a standard MTT assay (Green et al., 1984) against human carcinoma sensitive (KB) and multi-drug-resistant (KBV1) cells and MCF-7 and MCF-7/VP-16 resistant cells characterized as having the MRP (multi-drug resistant associated protein) phenotype. The use of an MTT assay using these cells is recognized as an accepted assay for anti-tumor activity by those in the field.
(§2) In vitro drug cytotoxicities against human breast carcinoma wild-type MCF-7 and MRP-resistant MCF-7/VP-16 cells were assessed by using the MTT reduction assay, as previously reported (Green et al., 1984). The MTT dye was obtained from Sigma Chemical Co. (St. Louis, Mo.). Cells were plated in 96-well microassay culture plates (10^4 cells/well) and grown overnight at 37° C. in a 5% CO2 incubator. Drugs were then added to the wells to achieve a final drug concentration ranging from 0.1 to 50 μg/mL. Four wells were used for each concentration. […] The optical density of each well was then measured with a microplate spectrophotometer at a wavelength of 570 nm. The percent cell viability was calculated by the following equation: […]
(§3) where OD is the mean optical density from four determinations. The percent cell viability values were plotted against the drug concentrations used, and the ID50 was calculated from the curve. […]

[2] = test system: human breast carcinoma wild-type MCF-7 cells; assay: MTT cytotoxicity assay, wild-type MCF-7 cells; assay type: cell-based; conditions: 72 hours incubation
Description: as §1, §2, §3

several cell lines = assay: In vitro potency comparison in several cell lines; assay type: cell-based; conditions: in vitro cytotoxicity
[3] = test system: MCF-7/dox cell line which overexpresses MDR1 gene; assay: MTT cytotoxicity assay, MCF-7/dox cells; assay type: cell-based, human; conditions: for RI (resistance index) MCF-7/dox vs MCF-7: MCF-7/dox relative to MCF-7; for ID50 MCF-7/dox: MTT, 72 hours incubation, MCF-7/dox cells
Description: [Worded in the source for another cell line; this cell line is reported under the same test.] as §1
(§4) In vitro drug cytotoxicities against human breast carcinoma wild-type MCF-7 and MRP-resistant MCF-7/VP-16 cells were assessed by using the MTT reduction assay, as previously reported (Green et al., 1984). The MTT dye was obtained from Sigma Chemical Co. (St. Louis, Mo.). Cells were plated in 96-well microassay culture plates (10^4 cells/well) and grown overnight at 37° C. in a 5% CO2 incubator. Drugs were then added to the wells to achieve a final drug concentration ranging from 0.1 to 50 μg/mL. Four wells were used for each concentration. Control wells were prepared by adding appropriate volumes of calcium- and magnesium-free PBS (pH 7.4). Wells containing culture medium without cells were used as blanks. The plates were incubated at 37° C. in a 5% CO2 incubator for 72 hours. Upon completion of the incubation, 20 μL of stock MTT dye solution (5 mg/mL) was added to each well. After a 4-hour incubation, 100 μL of buffer containing 50% N,N-dimethylformamide and 20% SDS was added to solubilize the MTT formazan. Complete solubilization was achieved by placing the plate in a mechanical shaker for 30 minutes at room temperature. The optical density of each well was then measured with a microplate spectrophotometer at a wavelength of 570 nm. The percent cell viability was calculated by the following equation:
(§5) % cell viability=(OD treated wells/OD control wells)×100
(§6) where OD is the mean optical density from four determinations. The percent cell viability values were plotted against the drug concentrations used, and the ID50 was calculated from the curve. Cytotoxicity experiments were repeated at least three times.
(§7) Drug resistance, both de novo and acquired, by human tumors is currently a major factor limiting the effectiveness of chemotherapy. […] Using this system, the inventors evaluate a drug's cytotoxic potential against human tumors and at the same time identify compounds that might have unique activity against MDR tumors (Priebe et al., 1993).

[4] = test system: human carcinoma sensitive (KB) cells; assay: MTT cytotoxicity assay, sensitive KB cells; assay type: cell-based; conditions: 72 hours incubation
Description: as §1, §4, §5
where OD is the mean optical density from four determinations. The percent cell viability values were plotted against the drug concentrations used, and the ID50 was calculated from the curve. Cytotoxicity experiments were repeated at least three times. […]

[5] = test system: multi-drug-resistant (KBV1) carcinoma cells overexpressing MDR1 (P-gp); assay: MTT cytotoxicity assay, multi-drug-resistant KBV1 cells; assay type: cell-based, human; conditions: for RI (resistance index) KBV1 vs KB: KBV1 relative to KB; for ID50 KBV1: MTT, 72 hours incubation, KBV1 cells
Description: as §1, §4, §5, §6, §7

COc1cccc2c1C(=O)c1c(O)c3c(c(O)c1C2=O)C[C@@](O)(C(=O)CO)C[C@@H]3O[C@H]1C[C@H]2[C@H](OC3CCCN32)[C@H](C)O1 (stereo partly shown) [WP836]
RI (resistance index) MCF-7/VP-16 vs MCF-7 ([1]; MCF-7/VP-16 relative to MCF-7): 1 | ID50 MCF-7/VP-16 ([1]; MTT, 72 hours incubation, MCF-7/VP-16 cells): 0.43 ± 0.06 ng/mL (≈ 0.722 nM) | ID50 MCF-7 [2]: 0.43 ± 0.06 ng/mL (≈ 0.722 nM) | potency relative to daunorubicin analog WP809 (several cell lines): several fold | RI (resistance index) MCF-7/dox vs MCF-7 [3]: 1.56 | ID50 MCF-7/dox [3]: 0.67 ± 0.15 ng/mL (≈ 1.12 nM) | ID50 KB [4]: 0.65 ± 0.14 ng/mL and 0.5 ± 0.06 ng/mL

COc1cccc2c1C(=O)c1c(O)c3c(c(O)c1C2=O)C[C@@](O)(C(C)=O)C[C@@H]3O[C@H]1C[C@H](N)[C@H](O)[C@H](C)O1 [DNR, daunorubicin]
RI (resistance index) KBV1 vs KB [5]: 45 | ID50 KBV1 [5]: 10,000 ± 0 ng/mL | ID50 KB [4]: 220 ± 10 ng/mL (≈ 417 nM)

COc1cccc2c1C(=O)c1c(O)c3c(c(O)c1C2=O)C[C@@](O)(C(=O)CO)C[C@@H]3O[C@H]1C[C@H](N)[C@H](O)[C@H](C)O1 [DOX, doxorubicin]
ID50 MCF-7 [2]: 300 ± 170 ng/mL and 240 ± 50 ng/mL | RI (resistance index) KBV1 vs KB [5]: >294 | ID50 KBV1 [5]: >100,000 ng/mL | RI (resistance index) MCF-7/dox vs MCF-7 [3]: >333 and >416 | ID50 MCF-7/dox [3]: 100,000 ng/mL and >100,000 ng/mL | ID50 KB [4]: 340 ± 100 ng/mL (≈ 626 nM)
